Patent US4242512A, “Novel thioamide derivatives containing a pyridazine group” (Morishita Pharmaceutical Co., Ltd., priority 1979, dated 1980)

Experiments:
[1] = tested on: aspirin-induced gastric ulcers in pylorus-ligated rats; assay: Effect on aspirin-induced gastric ulcers in pylorus-ligated rats; assay type: in vivo; settings: for Inhibition (aspirin-induced gastric ulcers): 10 rats; for Inhibition (aspirin-induced gastric ulcers) / ED50: 7 hrs after aspirin 100 mg/kg p.o.; for Safety Margin LD50/ED50 (aspirin-induced ulcers): LD50 mice p.o. / ED50 pylorus-ligated rats i.d., Table 2; for ED50: Rattus norvegicus, i.d., pylorus-ligated rats
Experimental: (§1) As illustrative evidence of the remarkable high gastric antisecretory activity of the compounds of the invention, tests were conducted on, and comparisons made with, closely similar compounds in the prior art. The following Tables 2 and 3 show the results of such tests according to previously identified techniques from the literature.
Effect on aspirin-induced gastric ulcers in pylorus-ligated
Each drug was given […] intraduodenally (i.d.) immediately after pyloru
ligation in a volume of 0.5 ml/100 g of body weight. Animals were
sacrificed 7 hrs after aspirin (100 mg/kg, p.o.) administration.

Shay ulceration in rats = assay: Effect on Shay ulceration in rats; assay type: in vivo; settings: for Inhibition (Shay ulceration): 10 rats; for Inhibition (Shay ulceration) / ED50: 13 hours after drug treatment; for Safety Margin LD50/ED50 (Shay ulceration): LD50 mice p.o. / ED50 Shay rats i.d., Table 3; for ED50: Rattus norvegicus, i.d., rats
Experimental: as §1
(§2) Effect on Shay ulceration in rats and acute toxicity in mice.
Each drug was given either intraduodenally (i.d.) immediately after
pylorus ligation in a volume of 0.5 ml/100 g of body weight. The animals
were sacrificed 13 hours after drug treatment.

Acute toxicity in mice = settings: mouse, in vivo, po, Table 2, read-out: LD50 (Table 2, head printed "50 (mg/kg) P.O. Orally")
Experimental: as §1
rats and acute toxicity in mice.
as §2

SMILES	Inhibition (aspirin-induced gastric ulcers) ([1]; 10 mg/kg i.d.)	Inhibition (aspirin-induced gastric ulcers) ([1]; 30 mg/kg i.d.)	Safety Margin LD50/ED50 (aspirin-induced ulcers) [1]	ED50 [1]	Inhibition (Shay ulceration) (Shay ulceration in rats; 10 mg/kg i.d.)	Inhibition (Shay ulceration) (Shay ulceration in rats; 30 mg/kg i.d.)	Safety Margin LD50/ED50 (Shay ulceration) (Shay ulceration in rats)	ED50 (Shay ulceration in rats)	LD50 (Acute toxicity in mice)
NC(=S)C(c1ccccc1)c1cnccn1 (stereo not drawn) [U.S. Pat. No. 3,624,085 Ex. 12]	15.4%	50.8%	30.80	30 mg/kg	18.3%	57.7%	33.00	28 mg/kg	924 mg/kg
Cc1ccc(C(C(N)=S)c2ccccc2)nn1 (stereo not drawn) [Ex. 2, 2-Phenyl-(6-methyl-3-pyridazinyl)thioacetomide]	3.2%	89.0%	80.95	21 mg/kg	50.0%	91.7%	154.54	11 mg/kg	1700 mg/kg
NC(=S)C(c1ccccc1)c1cccnn1 (stereo not drawn) [Ex. 1, 2-Phenyl-2-(3-pyridazinyl)thioacetamide]	48.6%	97.7%	85.12	11.5 mg/kg	33.3%	95.8%	78.40	12.5 mg/kg	980 mg/kg
CCC(C(N)=S)c1ccccn1 (stereo not drawn) [U.S. Pat. No. 3,686,190 Ex. 1]	11.3%	45.7%	12.88	52 mg/kg	12.0%	46.5%	17.70	34 mg/kg	670 mg/kg
NC(=S)C(c1ccccc1)c1ncccn1 (stereo not drawn) [U.S. Pat. No. 3,624,085 Ex. 9]	22.3%	74.0%	64.86	18.5 mg/kg	28.2%	65.0%	46.15	26 mg/kg	1200 mg/kg
